“And” between values parts separate entries of the source, which are not always exact repeats. Identical values can stand only once. Like-named read-outs stand apart in the source and are kept apart here.
Key:
[1] = target: tyrosinase; test: spectrophotometric tyrosinase inhibition assay with L-DOPA as substrate; type: biochemical, Bacillus subtilis NCTC 10400; conditions: for %Age Inhibition: test concentration not given
Description: The synthesized coumarin–triazole hybrids were subjected to spectrophotometric assay for tyrosinase by employing […]. The tyrosine enzyme was extracted from Bacillus subtilis NCTC 10400. The anti-tyrosinase potential of all the coumarin–triazole hybrids was screened by using L-DOPA (levodopa) as the substrate. All the coumarin derivatives were dissolved in DMSO. […] The coumarin derivatives along with the tyrosine enzyme (0.5 mg/mL) were pre-incubated for 10 min in buffer at 25 °C. Pre-incubation of tyrosinase and coumarin derivative was followed by the addition of levodopa (0.5 mM), and the reaction was monitored by absorbance measurement at 475 nm. The IC50 values were calculated by interpolation of the dose–response curves. The following formula was applied to calculate the percentage inhibition of tyrosinase:%age Inhibition = (B − S/B) × 100 where S and B are the absorbance values for the sample and blank, respectively.

[2] = L-DOPA 0.5 mM, pH 6.8, 25 °C, means ± SEs (n = 3), read-out: IC50
[3] = L-DOPA substrate, unit inferred, read-out: IC50 (unit inferred)

Row | SMILES | IC50 [1, 2] | %Age Inhibition ([1]; L-DOPA 0.5 mM, pH 6.8, 25 °C) | IC50 [1, 3] [µM] | melting point [°C]
1 | Cc1cc(=O)oc2cc(OC(=O)CSc3nnc(-c4cc5ccccc5o4)n3-c3ccccc3)ccc12 [Compound 17a, 4-Methyl-2-oxo-2H-chromen-7-yl-2-((5-(benzofuran-2-yl)-4-phenyl-4H-1,2,4-triazol-3-yl)thio)acetate] | 8.13 ± 0.13 µM | 12.023 ± 0.21% and 12.02 ± 0.21% | 8.14 ± 0.13 | 152
2 | COc1cccc2cc(-c3nnc(SCC(=O)Oc4ccc5c(C)cc(=O)oc5c4)n3-c3ccccc3)oc12 [Compound 17b, 4-Methyl-2-oxo-2H-chromen-7-yl-2-((5-(7-methoxybenzofuran-2-yl)-4-phenyl-4H-1,2,4-triazol-3-yl)thio)acetate] | 14.1 ± 0.17 µM | 6.3009 ± 0.14% and 6.30 ± 0.14% | 14.1 ± 0.17 | 140
3 | COc1ccc(-n2c(SCC(=O)Oc3ccc4c(C)cc(=O)oc4c3)nnc2-c2cc3cccc(OC)c3o2)cc1 [Compound 17c, 4-Methyl-2-oxo-2H-chromen-7-yl-2-((5-(7-methoxybenzofuran-2-yl)-4-(4-methoxyphenyl)-4H-1,2,4-triazol-3-yl)thio)acetate] | 13 ± 0.32 µM | 5.11 ± 0.15% | 13 ± 0.32 | 137
4 | Cc1cc(=O)oc2cc(OC(=O)CSc3nnc(-c4cc5cc(Br)ccc5o4)n3-c3ccccc3)ccc12 [Compound 17d, 4-Methyl-2-oxo-2H-chromen-7-yl-2-((5-(5-bromobenzofuran-2-yl)-4-phenyl-4H-1,2,4-triazol-3-yl)thio)acetate] | 5.89 ± 0.09 µM | 23.097 ± 0.13% and 23.09 ± 0.13% | 5.89 ± 0.09 | 232
5 | COc1ccc(-n2c(SCC(=O)Oc3ccc4c(C)cc(=O)oc4c3)nnc2-c2cc3cc(Br)ccc3o2)cc1 [Compound 17e, 4-Methyl-2-oxo-2H-chromen-7-yl-2-((5-(5-bromobenzofuran-2-yl)-4-(4-methoxyphenyl)-4H-1,2,4-triazol-3-yl)thio)acetate] | 0.339 µM and 0.33 µM | 30.85 ± 0.15% | 0.339 ± 0.08 | 220
6 | Cc1cc(=O)oc2cc(OC(=O)CSc3nnc(-c4cc5cc(Cl)ccc5o4)n3-c3ccccc3)ccc12 [Compound 17f, 4-Methyl-2-oxo-2H-chromen-7-yl-2-((5-(5-chlorobenzofuran-2-yl)-4-phenyl-4H-1,2,4-triazol-3-yl)thio)acetate] | 3.15 µM and 3.14 µM | 36.134 ± 0.21% and 36.13 ± 0.21% | 3.15 ± 0.23 | 226
7 | COc1ccc(-n2c(SCC(=O)Oc3ccc4c(C)cc(=O)oc4c3)nnc2-c2cc3cc(Cl)ccc3o2)cc1 [Compound 17g, 4-Methyl-2-oxo-2H-chromen-7-yl2-((5-(5-chlorobenzofuran-2-yl)-4-(4-methoxyphenyl)-4H-1,2,4-triazol-3-yl)thio)acetate] | 3.98 µM | 31.0609 ± 0.19% and 31.060 ± 0.19% | 3.98 ± 0.12 | 200
8 | Cc1cc(=O)oc2cc(OC(=O)CSc3nnc(-c4cc5c(ccc6ccccc65)o4)n3-c3ccccc3)ccc12 [Compound 17h, 4-Methyl-2-oxo-2H-chromen-7-yl-2-((5-(naphtho[2,1-b]furan-2-yl)-4-phenyl-4H-1,2,4-triazol-3-yl)thio)acetate] | 5.13 ± 0.05 µM | 30.62 ± 0.33% | – | –
9 | O=c1cc(CO)occ1O [Kojic acid, reference compound] | – | 6.79 ± 0.58% | – | –
